Experimental data taken from patent publication US20250314668A1, “DNAZYMES FOR SENSING AND IMAGING TARGET MOLECULES” (BOARD OF REGENTS, THE UNIVERSITY OF TEXAS SYSTEM, priority 2024, published 2025).
In the oligonucleotide strings, read from the 5' end, every base follows the letter of its sugar. An asterisk marks phosphorothioate; unmarked linkages are phosphodiester. Other units and linkages are bracketed, terminal groups are in braces. A string of capitals states the bases alone. d = 2'-deoxy (DNA); m = 2'-O-methyl

Columns and labels:
[1] = system: HepG2 cells; experiment: MTT assay of cytotoxicity of RSL3; type: cell-based; settings: 1 μM RSL3, over 8 hours
Protocol: To measure the cytotoxicity of RSL3 to HepG2 cells, a standard MTT assay was used. HepG2 cells were seeded at a density of 15,000 cells per well in 96-well plates. When the cells grew to 80% confluence, the medium was replaced by the normal MEM containing 1 μM RSL3 at different time points (0, 2, 4, 6, 8, and 10 hours). Afterward, the cell medium was replaced by the iron-deficient MEM containing PEI-ErS or PEI-iErS, incubated in a 37° C., 5% CO2 incubator for another 4 hours. The absorbance at 570 nm was measured with a SpectraMax M2 microplate reader to obtain the MTT assay readings. The untreated cells were set as a blank control for normalization.

[2] = system: HepG2 cells; experiment: Ferroptosis-induced fluctuations of labile Fe^2+ and Fe^3+ pools (RSL3); type: cell-based
Protocol: Ferroptosis-induced fluctuations of labile Fe^2+ and Fe^3+ pools: HepG2 cells were treated with 1 μM RSL3 in normal MEM at different time points (0, 2, 4, 6, 8, and 10 hours). Then, the cell medium was replaced by iron-deficient MEM containing PEI-ErS or PEI-iErS and incubated in a 37° C., 5% CO2 incubator for another 4 hours. Before imaging, the cells were stained by LysoTracker Red and Hoechst 33258 for 15 min. After washing with PBS, the cells were incubated in iron-deficient MEM during the imaging.

[3] = system: cultured cell lines; experiment: Iron redox changes in cultured cell lines with ferroptosis inducers and NCOA4 regulators; type: cell-based
[4] = system: SH-SY5Y cells; experiment: Cell death in FDX1 regulated SH-SY5Y cells with Aβ-Cu treatment; type: cell-based; settings: FDX1 knocked down cells; 25 µM Tempol or 100 μM Trolox
Excerpt: FIGS. 21A-21C depict cell death in FDX1 regulated SH-SY5Y cells with Aβ-Cu treatment. […] For all graphs, ****p<0.0001, ***p<0.001, **p<0.01, and ns is p>0.05.
Both oxidative stresses and proteotoxic stresses mediated cuproptosis were also observed in neurons during copper overload by elesclomol (ES), which is a copper ionophore, contributing to neuronal death. The high redox properties of copper can promote the Aβ-induced oxidative stress and subsequent neuronal death. […] The hypothesis is that the property of Aβ can be acted as a copper ionophore is part of what contributes to the pathological effects of cuproptosis in AD. To explore more about whether cuproptosis is related to AD neurodegeneration and understand the role of Aβ-Cu in neuronal death, the viability of SH-SY5Y cells with FDX1 knocked down by RNAi were monitored by stimulating with different CuCl2 concentration and 10 μM Aβ for overnight. […] Cu^2+ ions bound to Aβ are consistently more toxic to neuronal cells than Aβ in the absence of Cu^2+ ions.

[5] = system: corpus callosum brain region; experiment: Iron changes in the cuprizone model of Multiple Sclerosis; type: in vivo, mice; settings: over the course of cuprizone treatment; back to normal upon removal
Protocol: The study also co-stained the sensors with other antibodies to identify cell identities in neuron degenerative diseases, such as Alzheimer's disease. The antibody staining was performed before staining iron sensors. After traditional immunochemistry staining (need to avoid antigen exposures that require H2O2 or other oxidative reagents), brain slices were changed into the BisTris buffer for iron sensors and incubated with iron sensors for 30 minutes. Then the brain slices were mounted onto slices and imaged immediately to minimize the background cleavage or degradation of the sensors. The iron redox changes in specific cell types were evaluated by taking images with a confocal microscope and analyzing the iron signal that colocalized with specific antibodies. […] The study also observed a decrease in iron levels in microglial cells of wildtype mice brains in the hippocampal region, but an increase in iron levels in 3×Tg mice brains. […] More detailed investigations are still going on to test how they are correlated with this disease process.
With a similar technique, the iron changes were studied with the cuprizone model of Multiple Sclerosis as well. […] The Fe^3+/Fe^2+ elevation was back to normal upon the removal of the chemical, and remyelination of the mice brains.

[6] = PAGE gel activity assays of Fe^3+ B12 DNAzyme (cleavage site, truncation, pH, buffer, mutation combinations, selectivity); type: biochemical; settings: presence of Fe^3+
Excerpt: RNA Cleavage Dependence of Fe^2+ H5 and Fe^3+ B12 DNAzymes: To investigate the Fe^2+ H5 and Fe^3+ B12 DNAzymes, various cleavage site modifications were incorporated into the substrate strands. The original Fe^2+ H5 DNAzyme was combined with Fe^2+ H5 substrate strands containing either a 2′-hydroxyl (2′OH), 2′-hydrogen (2′H), or 2′O-methyl (2′OMe) at the cleavage site. The original Fe^2+ H5 DNAzyme cleaves the Fe^2+ H5 substrate strand containing 2′OH at the cleavage site in the presence of Fe^2+ under anaerobic conditions. […] Similarly, the original Fe^3+ B12 DNAzyme was combined with Fe^3+ B12 substrate strands containing either 2′OH, 2′H, or 2′OMe at the cleavage site. The original Fe^3+ B12 DNAzyme cleaves the Fe^3+ B12 substrate strand containing 2′OH at the cleavage site in the presence of Fe^3+. […]
Truncations of Fe^2+ H5 and Fe^3+ B12 DNAzymes' Binding Arms: To further investigate the Fe^2+ H5 and Fe^3+ B12 DNAzymes, the DNAzymes were truncated at the 5′ and 3′ ends and tested using the FAM-labeled original substrate strand through activity assays assessed by PAGE gel. […]
Similarly, the pH dependency of Fe^3+ B12 was tested across a range of pH 4.0 to 6.0 with 100 μM FeCl3. […] Fluorescence intensity was monitored over time using a 5′ Alexa Fluor™ 647-labeled substrate and a 3′ Iowa Black™ RQ quencher-labeled DNAzyme at an enzyme-to-substrate ratio of 1:1. […]

[7] = system: HepG2 or Hela cells; experiment: Simultaneous imaging of labile Fe^2+ and Fe^3+ in living cells treated with Tf or DFO; type: cell-based
Protocol: For delivery of DNAzyme sensors using PEI (66, 67), the corresponding Fe(II)-H5-ErS, Fe(II)-H5-iErS, Fe(III)-B12-ErS, and Fe(III)-B12-iErS (final concentration of 10 μM) were mixed in the Fe^2+ buffer and Fe^3+ buffer separately. The mixtures were annealed at 95° C. for 5 min and stored at room temperature to allow full hybridization. PEI (25 kDa) was dissolved in water at 1 mg/ml. […] The normal cell medium was replaced with iron-deficient medium before the PEI-ErS or PEI-iErS was added to the cells grown in the plates.
After incubating HepG2 cells with PEI-ErS or PEI-iErS complex for 4 hours, cells were washed with phosphate-buffered saline (PBS) twice to remove excess amounts of complexes in medium. Then, the cells were stained by Hoechst 33258 for 15 min. Images were obtained using a Zeiss LSM 880 confocal microscope at 63× oil objective lens with numerical aperture 1.40 and immersion medium Immersol 518 F (Zeiss) at the UIUC IGB Core Facilities. Florescence emission of Hoechst 33258 was measured over 450 to 500 nm with excitation at 401 nm. Fe(II)-H5 was excited by 488 nm and measured over 500 to 550 nm, and Fe(III)-B12 was excited at 633 nm and measured over 640 to 700 nm. A laser power of 67% and pinhole size of 1 […] (AU) were used for the cellular images. Acquired images were analyzed by ImageJ using JACoP (88, 89). No background subtraction, Z-stacks, Gaussian blur filter, or change thresholds were performed for visualizing the figures. For cell fluorescence quantification, the study quantified the average fluorescence signals intensity in five cells (for TurboFect transfected cells) or five LysoTracker-labeled regions in different cells (for PEI transfected cells), per picture and three pictures per group with Image J (88), for the statistical comparison between groups.
Simultaneous imaging of labile Fe^2+ and Fe^3+ in living cells: HepG2 or Hela cells were cultured in glass-bottom dishes until about 70% confluence. The cells were pretreated with iron-deficient MEM containing either 100 μM DFO, 100 μM ferric ammonium citrate, […] holo-Tf, or 50 μM Tf for 4 hours, and then, the medium was replaced with an iron-deficient MEM containing PEI-ErS or PEI-iErS complexes or Opti-MEM containing 1 μl of TurboFect transfection reagent as described above for 4 hours. Before imaging, the cells were stained by LysoTracker Red and Hoechst 33258 for 15 min. After washing with PBS, the cells were incubated in iron-deficient MEM or regular DMEM, respectively, during the imaging.
Data processing and statistical analysis: To have a direct comparison of the iron amount between groups, the background signals were normalized by subtracting the fluorescence signals in iErS groups from the ErS groups (F-F0). No Z-stacks or change thresholds were used for statistical analysis. Graphs were plotted with GraphPad (GraphPad Software Inc.) or Origin (OriginLabs Corporation) and correspond to a single experiment. Bars represent means±SEM. Two-tailed distribution and two-sample equal variance t test were used for analyzing significance. Dixon's Q tests were performed to identify and exclude outliners. *P<0.05, **P<0.01, and ***P <0.001. […] The presented data described the quantification from single representative replicates from those biological replicates.

[8] = system: cells; experiment: Fe signal changes detected with DNAzyme sensors and flow cytometry; type: cell-based; settings: treated with Transferrin
Excerpt: Preliminary results: The study detected the Fe signal changes with DNAzyme sensors and flow cytometry.

[9] = 5 μM Tf group, iron-deficient medium

With `COC(=O)c1ccc([C@@H]2c3[nH]c4ccccc4c3C[C@@H](C(=O)OC)N2C(=O)CCl)cc1` [RSL3, RAS-selective lethal 3] the MTT assay result [1] was “cell death”, the “increase of Fe^2+” value ([2]; 1 μM RSL3, from 0 to 2 hours, LysoTracker-labeled region) was 2.3 fold and the “increase of Fe^3+” value ([2]; 1 μM RSL3, from 0 to 4 hours, LysoTracker-labeled region) was 2.8 fold. The “increase of Fe^2+” value ([2]; 1 μM RSL3, from 2 to 4 hours, LysoTracker-labeled region) was 4.3 fold, the “Fe^3+/Fe^2+ ratio (Fe redox) during ferroptosis” value ([2]; RSL3-induced ferroptosis, endo-lysosomes) was “continuous decrease” and the “Fe^2+ and Fe^3+ levels in later stage of ferroptosis” value ([2]; after 4 hours) was “both iron levels decreased”. For the same compound, the “Fe^2+ and Fe^3+ during induced ferroptosis” value [3] was “increased” and the “Fe^3+/Fe^2+ ratio during induced ferroptosis” value [3] was “decreased”.
In the case of `CC1(C)CC(O)CC(C)(C)N1[O]` [Tempol], the “rescue of Aβ-Cu induced cell death by ROS scavenger” value [4] was “fail to fully rescue”.
With `Cc1c(C)c2c(c(C)c1O)CCC(C)(C(=O)O)O2` (stereo not drawn) [Trolox] the “rescue of Aβ-Cu induced cell death by ROS scavenger” value [4] was “fail to fully rescue”.
With `O=C(NN=C1CCCCC1)C(=O)NN=C1CCCCC1` [cuprizone] the “iron redox (Fe^3+/Fe^2+) in corpus callosum” value [5] was “elevated iron redox”.
For “Fe^3+ B12 Original Substrate (2′H) (CTCTATTAGGGAGACTCGCATGCCGC; DNA, backbone not given here)”, the “cleavage by the original Fe^3+ B12 DNAzyme” value [6] was “does not cleave”.
In the case of “Fe^3+ B12 Original Substrate (2′OMe) (dCdTdCdTdAdTdTdAmGdGdGdAdGdAdCdTdCdGdCdAdTdGdCdCdGdC)”, the “cleavage by the original Fe^3+ B12 DNAzyme” value [6] was “does not cleave”.
In the case of transferrin [Tf], the “increase of Fe^2+ sensor signal” value [7, 9] was 1.9 fold, the “increase of Fe^3+ sensor signal” value [7, 9] was 1.6 fold and the “increase for both Fe^3+ and Fe^2+” value ([7]; normal cell media) was “around 4 fold”. For the same compound, the “change of the Fe^3+/Fe^2+ ratio” value ([7]; treated cells) was “No significant change” and the “cells with elevated fluorescence intensity (moved from Q4 to Q2)” value [8] was “More than 20%”.
